Results as given in US20240270821A1, “GIP/GLP1/GCG TRI-RECEPTOR AGONISTS AND USES THEREOF” (priority 2023, published 2024).
Like-named read-outs stand apart in the source and are kept apart here. Starred links: 1 amine or outer side, 2 acyl side, 3 side chain; linkers in the order of their positions; H or OH if unused. Non-standard residues stand in square brackets, D forms with d. Groups on a side chain read outwards from the residue. *: point of attachment. C20 diacid = O=C(O)CCCCCCCCCCCCCCCCCCC(=O)*; C18 diacid = O=C(O)CCCCCCCCCCCCCCCCC(=O)*; γGlu = O=C(O)[C@H](CCC(=O)[*:2])N[*:1]; αMe4Pal = C[C@](N)(Cc1ccncc1)C(=O)O; 4Pal = N[C@@H](Cc1ccncc1)C(=O)O; αMeL = CC(C)C[C@](C)(N)C(=O)O; Orn = NCCC[C@H](N)C(=O)O; AEEA = NCCOCCOCC(=O)O; Aib = CC(C)(N)C(=O)O

What was measured:
Format in all cases: cell-based
human GcgR = human GcgR (Homo sapiens, UniProt P47871); test: Functional cAMP activity in the presence of 1% HSA
Chain of human GcgR (P47871 26-477): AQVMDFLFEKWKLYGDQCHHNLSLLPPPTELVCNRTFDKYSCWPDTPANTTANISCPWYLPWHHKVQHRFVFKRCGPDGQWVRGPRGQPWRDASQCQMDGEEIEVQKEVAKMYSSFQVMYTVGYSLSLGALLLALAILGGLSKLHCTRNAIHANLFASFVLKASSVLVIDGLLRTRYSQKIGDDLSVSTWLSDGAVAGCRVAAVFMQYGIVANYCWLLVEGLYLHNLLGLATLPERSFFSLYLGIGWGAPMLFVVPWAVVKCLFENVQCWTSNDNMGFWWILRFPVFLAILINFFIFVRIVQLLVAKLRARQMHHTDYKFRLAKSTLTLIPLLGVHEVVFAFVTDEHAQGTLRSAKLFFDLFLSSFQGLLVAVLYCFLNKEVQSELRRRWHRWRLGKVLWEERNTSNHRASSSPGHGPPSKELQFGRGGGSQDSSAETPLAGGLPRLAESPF

hGIPR [1] = target: T1, hGIPR (Homo sapiens, UniProt P48546); test: Functional cAMP activity in the presence of 1% HSA
T1 sequence (P48546 22-466): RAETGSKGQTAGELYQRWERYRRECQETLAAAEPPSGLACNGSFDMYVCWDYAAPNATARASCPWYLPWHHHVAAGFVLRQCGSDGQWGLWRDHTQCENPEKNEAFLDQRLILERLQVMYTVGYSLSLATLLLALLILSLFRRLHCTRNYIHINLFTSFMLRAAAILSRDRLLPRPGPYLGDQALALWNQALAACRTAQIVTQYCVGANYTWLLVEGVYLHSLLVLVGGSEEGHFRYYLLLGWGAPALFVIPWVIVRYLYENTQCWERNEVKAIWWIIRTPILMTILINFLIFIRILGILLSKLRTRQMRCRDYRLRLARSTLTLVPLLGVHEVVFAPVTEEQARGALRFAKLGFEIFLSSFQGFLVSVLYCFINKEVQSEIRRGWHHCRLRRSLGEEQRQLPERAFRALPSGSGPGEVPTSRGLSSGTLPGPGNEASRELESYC

human GLP1-R = human GLP1-R (Homo sapiens, UniProt P43220); test: GLP1-R internalization assay in HEK293 cells; details: for Internalization % TOP: normalized to maximum concentration of GLP-1 (100%)
Chain of human GLP1-R (P43220 24-463): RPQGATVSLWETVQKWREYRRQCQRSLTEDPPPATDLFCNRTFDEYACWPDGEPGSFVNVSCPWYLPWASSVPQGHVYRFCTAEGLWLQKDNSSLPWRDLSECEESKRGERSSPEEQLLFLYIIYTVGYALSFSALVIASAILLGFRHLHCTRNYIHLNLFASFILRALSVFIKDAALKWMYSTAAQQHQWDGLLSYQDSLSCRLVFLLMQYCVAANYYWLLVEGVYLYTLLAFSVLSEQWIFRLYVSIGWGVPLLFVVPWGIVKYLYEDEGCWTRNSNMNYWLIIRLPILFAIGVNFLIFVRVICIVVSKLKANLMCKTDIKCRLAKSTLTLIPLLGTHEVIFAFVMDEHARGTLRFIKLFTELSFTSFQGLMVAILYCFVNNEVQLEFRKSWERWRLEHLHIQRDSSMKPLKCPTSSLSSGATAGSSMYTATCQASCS

hGcgR = hGcgR (Homo sapiens, UniProt P47871); test: Functional cAMP activation in the presence of 0.1% casein (no HSA);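 note: intracellular cAMP rise after 30 min at 37 °C, read by HTRF against a cAMP standard curve, scaled from buffer only (0%) to maximal control ligand response (100%)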
Chain of hGcgR (P47871 26-477): as the sequence (P47871 26-477) above

hGLP-1R [2] = target: T2, hGLP-1R (Homo sapiens, UniProt P43220); test: Functional cAMP activity in the presence of 1% HSA
T2 sequence (P43220 24-463): as the sequence (P43220 24-463) above

hGLP-1R [3] = target: T2, hGLP-1R; test: Functional cAMP activation in the presence of 0.1% casein (no HSA);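 for Relative cAMP EC50, hGIPR: intracellular cAMP rise after 30 min at 37 °C read by HTRF against a standard curve, scaled between buffer alone (0%) and top control ligand concentration (100%), four-parameter fit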;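 for Relative cAMP EC50, hGLP-1R: intracellular cAMP rise after 30 min at 37 °C read by HTRF, normalized between buffer only (0%) and maximal control ligand (100%), four-parameter variable-slope fit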
Method: After a 30-minute incubation at 37° C., the resulting increase in intracellular cAMP is quantitatively determined using the CisBio CAMP Dynamic 2 HTRF Assay Kit (62AM4PEJ). Briefly, cAMP levels within the cell are detected by adding the cAMP-d2 conjugate in cell lysis buffer followed by the antibody anti-cAMP-Eu^3+-Cryptate, also in cell lysis buffer.
Intracellular cAMP levels are determined by extrapolation using a standard curve. Dose response curves of compounds are plotted as the percentage of stimulation normalized to minimum (buffer only) and maximum (maximum concentration of each control ligand) values and analyzed using a four parameter non-linear regression fit with a variable slope (Genedata Screener 13). EC50 is the concentration of compound causing half-maximal simulation in a dose response curve. Each relative EC50 value for the Geometric mean calculation is determined from a curve fitting.

hGIPR [4] = target: T1, hGIPR; test: as above
[5] = HEK293 cells expressing SNAP-GLP-1R, read-out: GLP1R Internalization EC50
[6] = in the presence of 0.1% casein (no HSA), geometric mean, read-out: Relative cAMP EC50, hGcgR
[7] = read-out: cAMP Rel EC50, hGLP-1R
[8] = in the presence of 0.1% casein (no HSA), geometric mean, read-out: Relative cAMP EC50, hGLP-1R
[9] = in the presence of 0.1% casein (no HSA), geometric mean, read-out: Relative cAMP EC50, hGIPR

| Molecule | EC50 (human GcgR; read-out: cAMP Rel EC50, hGcgR) [nM] | EC50 (hGIPR [1]; read-out: cAMP Rel EC50, hGIPR) [nM] | EC50 (human GLP1-R; [5]) [nM] | Internalization % TOP (human GLP1-R) [%] | EC50 (hGcgR; [6]) [nM] | EC50 (hGLP-1R [2]; [7]) [nM] | EC50 (hGLP-1R [3]; [8]) [nM] | EC50 (hGIPR [4]; [9]) [nM] | EC50 (human GcgR) [nM] | EC50 (hGIPR [1]) [nM] | EC50 (hGcgR) [nM] | EC50 (hGLP-1R [2]) [nM] | EC50 (hGLP-1R [3]) [nM] | EC50 (hGIPR [4]) [nM] | EC50 (human GLP1-R) [nM] |
| --- | --- | --- | --- | --- | --- | --- | --- | --- | --- | --- | --- | --- | --- | --- | --- |
| CC[C@H](C)[C@H](NC(=O)[C@H](Cc1ccccc1)NC(=O)[C@H](C)NC(=O)C(C)(C)NC(=O)[C@H](CCC(N)=O)NC(=O)[C@H](C)NC(=O)[C@H](CCCCNC(=O)COCCOCCNC(=O)CC[C@H](NC(=O)CCCCCCCCCCCCCCCCC(=O)O)C(=O)O)NC(=O)[C@H](CCCCN)NC(=O)[C@H](CC(=O)O)NC(=O)[C@H](CC(C)C)NC(=O)[C@](C)(CC(C)C)NC(=O)[C@H](CCCN)NC(=O)[C@H](CO)NC(=O)[C@H](Cc1ccccc1)NC(=O)[C@H](CC(=O)O)NC(=O)[C@H](CO)NC(=O)[C@@H](NC(=O)[C@H](Cc1ccccc1)NC(=O)[C@@H](NC(=O)CNC(=O)[C@H](CCC(N)=O)NC(=O)C(C)(C)NC(=O)[C@@H](N)Cc1ccc(O)cc1)[C@@H](C)O)[C@@H](C)O)C(=O)N[C@@H](CCC(=O)O)C(=O)N[C@@H](Cc1ccc(O)cc1)C(=O)N[C@@H](CC(C)C)C(=O)N[C@@H](CC(C)C)C(=O)N[C@@H](CCC(=O)O)C(=O)N[C@H](C)C(=O)NCC(=O)N1CCC[C@H]1C(=O)N[C@@H](CO)C(=O)N[C@@H](CO)C(=O)NCC(=O)N[C@@H](C)C(=O)N1CCC[C@H]1C(=O)N1CCC[C@H]1C(=O)N1CCC[C@H]1C(=O)N[C@@H](CO)C(=O)NCC(=O)N[C@@H](CCC(=O)O)C(N)=O [Example 129] | 510 | 24.3 | 22.5 | 40.6 | 2.01 | 284 | 1.87 | 0.134 | – | – | – | – | – | – | – |
| H-Y[Aib]QGTFTSDFS[Orn][αMeL]LDKK([AEEA-γGlu-C18 diacid])AQ[Aib]AFIEYLIE[Aib]GESSGAPPPSGS-NH2 [Example 218] | 1480 | 15 | 80.5 | 35 | 7.89 | 152 | 0.76 | 0.0853 | – | – | – | – | – | – | – |
| H-Y[Aib]QGTFTSDFS[Orn][αMeL]LDKK([AEEA-γGlu-C18 diacid])AQ[Aib]AFIEYLLAGGPSSGAPPPSGT-NH2 [Example 87] | 1110 | 12.8 | 61.8 | 45.4 | 8.51 | 290 | 2.75 | 0.128 | – | – | – | – | – | – | – |
| H-Y[Aib]QGTFTSD[4Pal]SR[αMeL]LDKK([AEEA-γGlu-C18 diacid])AQ[Aib]AFIEYLLE[Aib]GPSSGAPPPSGE-NH2 [Example 114] | 1120 | 19.6 | 47.2 | 62.9 | 5.63 | 1370 | 6.38 | 0.14 | – | – | – | – | – | – | – |
| H-Y[Aib]QGTFTSDFSK[αMeL]LDKK([AEEA-γGlu-C20 diacid])AQ[Aib]AFIEYLLAGGPSSGAPPPSEG-NH2 [Example 10] | 1640 | 43 | 79.2 | 71.9 | 7.62 | 375 | 1.85 | 0.226 | – | – | – | – | – | – | – |
| H-Y[Aib]QGTFTSDFS[Orn][αMeL]LDKK([AEEA-γGlu-C18 diacid])AQ[Aib]AFIEYLLE[Aib]G[4Pal]SSGAPPPSGE-NH2 [Example 248] | 241 | 10.6 | 67.4 | 39.5 | 3.36 | 438 | 3.17 | 0.0861 | – | – | – | – | – | – | – |
| H-Y[Aib]QGTFTSDFSK[αMeL]LDKK([AEEA-γGlu-C20 diacid])AQ[Aib]AFIEYLLAGGPSSGEPPPSEG[AEEA]-NH2 [Example 32] | 1440 | 66.1 | 86.1 | 64.4 | 11.6 | 422 | 2.55 | 0.28 | – | – | – | – | – | – | – |
| H-Y[Aib]QGTFTSDFSK[αMeL]LDKK([AEEA-γGlu-C18 diacid])AQ[Aib]QFIEYLLEGGPSSGAPPPSEG-NH2 [Example 51] | 856 | 98.4 | 89.2 | 55.7 | 5.15 | 1210 | 5.8 | 0.421 | – | – | – | – | – | – | – |
| H-Y[Aib]QGTFTSDFS[Orn][αMeL]LDKK([AEEA-AEEA-γGlu-C18 diacid])AQ[Aib]AFIEYLLE[Aib]GPSSGEPPPSGS-NH2 [Example 166] | 724 | 21 | 74.6 | 44.2 | 3.82 | 1500 | 6.96 | 0.118 | – | – | – | – | – | – | – |
| H-Y[Aib]QGTFTSDFSK[αMeL]LDKK([AEEA-γGlu-C20 diacid])AQ[Aib]AFIEYLLE[Aib]GPSSGAPPPGGS-NH2 [Example 43] | 850 | 29.6 | 58.2 | 68.3 | 2.71 | 539 | 1.55 | 0.101 | – | – | – | – | – | – | – |
| H-Y[Aib]QGTFTSDFSK[αMeL]LDKK([AEEA-γGlu-C18 diacid])AQ[Aib]AFIEYLLE[Aib]GPSSGEPPPSEG-NH2 [Example 46] | 393 | 19.6 | 41 | 58.1 | 1.53 | 601 | 4.04 | 0.0947 | – | – | – | – | – | – | – |
| H-Y[Aib]QGTFTSD[4Pal]SK[αMeL]LDKK([AEEA-γGlu-C18 diacid])AQ[Aib]AFIEYLIA[Aib]GESSGAPPPSGS-NH2 [Example 285] | 409 | 8.22 | 59.9 | 73.6 | 2.32 | 365 | 2.87 | 0.0652 | – | – | – | – | – | – | – |
| H-Y[Aib]QGTFTSDFS[Orn][αMeL]LDKK([AEEA-γGlu-C18 diacid])AQ[Aib]AFIEYLLEGG[4Pal]SSGAPPPGGS-NH2 [Example 163] | 790 | 52 | 143 | 37.8 | 5.6 | 762 | 6.5 | 0.376 | – | – | – | – | – | – | – |
| H-Y[Aib]QGTFTSDFSK[αMeL]LDKK([AEEA-γGlu-C20 diacid])AQ[Aib]AFIEYLLE[Aib]GPSSGAPPPSSG-NH2 [Example 44] | – | – | 51.5 | 65 | – | – | – | – | 1050 | 35.9 | 2.46 | 591 | 1.66 | 0.116 | – |
| H-Y[Aib]QGTFTSDFSK[αMeL]LDKK([AEEA-γGlu-C18 diacid])AQ[Aib]AFIEYLIEGGPSSGAPPPSEG-NH2 [Example 49] | 1310 | 44.9 | 37.2 | 53.2 | 5.54 | 151 | 0.706 | 0.324 | – | – | – | – | – | – | – |
| H-Y[Aib]QGTFTSDFS[Orn][αMeL]LDKK([AEEA-γGlu-C18 diacid])AQ[Aib]AFIEYLLE[Aib]GPSSGAPPPSGS-NH2 [Example 74] | 709 | 15.9 | 72.7 | 53.3 | 2.53 | 627 | 3.32 | 0.0708 | – | – | – | – | – | – | – |
| H-Y[Aib]QGTFTSDFSQ[αMeL]LDKK([AEEA-γGlu-C18 diacid])AQ[αMe4Pal]AFIEYLIE[Aib]GESSGAPPPSGE-NH2 [Example 233] | – | – | – | 41.8 | – | – | – | – | 453 | 28.1 | 2.25 | 223 | 0.874 | 0.0884 | 24.8 |
